One assay has as its system Human EDG-2/HepG2 cells. Kind of assay: Inhibitory activity on LPA-accelerated [3H] thymidine incorporation (cell proliferation). Type of assay: cell-based. To be noted: 50% inhibition of LPA-induced increase of [3H] thymidine incorporation. An excerpt: The human EDG-2 expression plasmid was introduced into HepG2 cells by electroporation. After the introduction, culturing was continued while exchanging selective media every 3 to 4 days, thereby obtaining an expressed colony. Regarding these cells, Ca-influx and cell-proliferation by LPA, level of [^3H] LPA binding and the like were inspected to select a cell line which highly expresses human EDG-2 (human EDG-2/HepG2).
Human EDG-2/HepG2 cells suspended in 10% bovine serum-containing DMEM (Dulbecco's modified eagle medium) were plated on a 96-well plate and, on the next day, the medium was exchanged with serum-free DMEM. 24 hours later, the medium was exchanged with DMEM containing LPA or DMEM containing no LPA, cells were cultured for further 16 hours, and [^3H] thymidine was then added. After culturing for 8 hours subsequent to the addition of [^3H] thymidine, cells were washed with PBS (phosphate-buffered saline), and the amount of [^3H] thymidine incorporated into the cells were assayed by Betaplate filter counter system (Amersham Pharmacia Biotech). The difference between the amount of [^3H] thymidine incorporated in the LPA-added well and the amount of [^3H] thymidine incorporated in the well containing no LPA represents the amount of [^3H] thymidine incorporation accelerated by LPA. […] The test compounds were added immediately before the LPA addition.

The target of another assay is T1, human EDG-2 (Homo sapiens, UniProt Q92633).
T1 construct: cDNA of the cloned human EDG-2 was introduced into pEFneo, which is an animal expression vector; expressed in transfected cells; host or cells: HepG2
T1 sequence (Q92633 whole entry): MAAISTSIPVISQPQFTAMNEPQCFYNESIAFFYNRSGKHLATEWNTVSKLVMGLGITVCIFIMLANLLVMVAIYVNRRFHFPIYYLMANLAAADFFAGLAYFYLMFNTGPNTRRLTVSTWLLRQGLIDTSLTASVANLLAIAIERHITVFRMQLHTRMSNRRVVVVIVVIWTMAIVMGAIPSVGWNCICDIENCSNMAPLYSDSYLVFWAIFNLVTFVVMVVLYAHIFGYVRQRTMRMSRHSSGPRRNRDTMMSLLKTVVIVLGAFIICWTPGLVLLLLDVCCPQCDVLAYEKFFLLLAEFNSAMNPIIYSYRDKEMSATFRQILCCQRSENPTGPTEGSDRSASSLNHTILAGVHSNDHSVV
Kind of assay: Inhibitory activity on LPA-induced elevation of intracellular Ca2+ level. Conditions: 50% inhibition of elevation of intracellular Ca2+ level by LPA, human EDG-2/HepG2 cells, fura-2. It counts as cell-based. The method, boiled down:
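Stably transfected HepG2 cells loaded with fura-2/AM (45 min, room temperature) in 0.1% BSA HEPES buffer. Test compound added before LPA, and the LPA-evoked intracellular Ca2+ rise measured fluorometrically. IC50 for inhibition derived.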

For `CCOC(=O)CSCc1ccc(-c2onc(C)c2NC(=O)OC(C)c2ccccc2Cl)cc1` (stereo not shown) [Compound 119, Ethyl 2-({4-[{4-(i [-(2-chlorophenyl)ethoxy]carbonyl}amino)-3-methyl-5-isoxazolyl]benzyl}-sulfanyl)acetate], the values for the IC50 in the assay on Human EDG-2/HepG2 cells and against human EDG-2 were 0.1 to 0.3 µM and 3 to 10 µM, respectively.
On to `Cc1noc(-c2ccc(CSCCC(=O)O)cc2)c1NC(=O)OC(C)c1ccccc1F` (stereo not shown) [Compound 157, 3-({4-[4-({[1-(2-Fluorophenyl)ethoxy]carbonyl}amino)-3-methyl-5-isoxazolyl]benzyl}-sulfanyl)propanoic acid], for which the figures for the IC50 in the assay on Human EDG-2/HepG2 cells and against human EDG-2 were 0.3 to 1 µM and 3 µM, respectively.
The corresponding values for `COC(=O)CCSCc1ccc(-c2onc(C)c2NC(=O)OC(c2ccccc2)C(F)(F)F)cc1` (stereo not shown) [Compound 162, Methyl 3-{[4-(3-methyl-4-{[(2,2,2-trifluoro-1-phenylethoxy)carbonyl]amino}-5-isoxazolyl)-benzyl]-sulfanyl}propanoate] are 0.03 to 0.1 µM and 3 to 10 µM.
As for `CCc1noc(-c2ccc(CSCC(=O)OC)cc2)c1NC(=O)OC(C)c1ccccc1Cl` (stereo not shown) [Compound 153, Methyl 2-({4-[4-({[1-(2-chlorophenyl)ethoxy]carbonyl}amino)-3-ethyl-5-isoxazolyl]benzyl}-sulfanyl)acetate], the results for the IC50 in the assay with Human EDG-2/HepG2 cells and at human EDG-2 were 0.3 µM and 3 to 10 µM, respectively.
Taken in the same sequence, the figures for `Cc1noc(-c2ccc(CSCCS(=O)(=O)O)cc2)c1NC(=O)OC(C)c1ccccc1Cl` (stereo not shown) [Compound 151, 2-({4-[4-({[1-(2-Chlorophenyl)ethoxy]carbonyl}amino)-3-methyl-5-isoxazolyl]benzyl}-sulfanyl)-1-ethanesulfonic acid] were 0.1 µM and 3 to 10 µM.
For `COC(=O)CSCc1cccc(-c2onc(C)c2NC(=O)OC(C)c2ccccc2Cl)c1` (stereo not shown) [Compound 130, Methyl 2-({3-[4-({[1-(2-chlorophenyl)ethoxy]carbonyl}amino)-3-methyl-5-isoxazolyl]-benzyl}sulfanyl)acetate], the results for the IC50 in the assay on Human EDG-2/HepG2 cells and against human EDG-2 were 0.3 to 1 µM and 3 to 10 µM, respectively.
Taken in the same sequence, the figures for `Cc1noc(-c2ccc(CCl)cc2)c1NC(=O)OC(c1ccccc1)C(F)(F)F` (stereo not shown) [Compound 161, 2,2,2-Trifluoro-1-phenylethyl N-{5-[4-(chloromethyl)phenyl]-3-methyl-4-isoxazolyl}-carbamate] were 1 to 3 µM and 3 to 10 µM.
Take `CCOC(=O)CSCc1cccc(-c2onc(C)c2NC(=O)OC(C)c2ccccc2Cl)c1` (stereo not shown) [Compound 140, Ethyl 2-({3-[4-({[1-(2-chlorophenyl)ethoxy]carbonyl}amino)-3-methyl-5-isoxazolyl]benzyl}-sulfanyl)acetate]: the IC50 lay in the range of 0.3 to 1 µM in the assay on Human EDG-2/HepG2 cells and 3 to 10 µM on human EDG-2.
Taken in the same sequence, the figures for `COC(=O)CS(=O)(=O)Cc1ccc(-c2onc(C)c2NC(=O)OC(C)c2ccccc2Cl)cc1` (stereo not shown) [Compound 133] were 0.1 to 0.3 µM and 10 µM.
The corresponding values for `Cc1noc(-c2ccc(CSCCc3ccccc3)cc2)c1NC(=O)OC(C)c1ccccc1Cl` (stereo not shown) [Compound 124] are 0.1 to 0.3 µM and 10 to 30 µM.
The corresponding values for `Cc1noc(-c2cccc(CSc3nc[nH]n3)c2)c1NC(=O)OC(C)c1ccccc1Cl` (stereo not shown) [Compound 143, 1-(2-Chlorophenyl)ethyl N-(3-methyl-5-{3-[(1H-1,2,4-triazol-3-ylsulfanyl)methyl]phenyl}-4-isoxazolyl)carbamate] are 0.1 to 0.3 µM and 3 to 10 µM.
As for `Cc1noc(-c2ccc(CSCCNC(=O)c3ccc[nH]3)cc2)c1NC(=O)OC(C)c1ccccc1Cl` (stereo not shown) [Compound 149, 1-(2-Chlorophenyl)ethyl N-(3-methyl-5-{4-[({2-[(1H-2-pyrrolylcarbonyl)amino]ethyl}-sulfanyl)methyl]phenyl}-4-isoxazolyl)carbamate], the IC50 was 0.03 µM with Human EDG-2/HepG2 cells and 10 to 30 µM at human EDG-2.
Consider `Cc1noc(-c2ccc(CNCCc3ccncc3)cc2)c1NC(=O)OC(C)c1ccccc1Cl` (stereo not shown) [Compound 111, 1-(2-Chlorophenyl)ethyl N-{3-methyl-5-[4-({[2-(4-pyridyl)ethyl]amino}methyl)phenyl]-4-isoxazolyl}carbamate], for which the IC50 in the assay on Human EDG-2/HepG2 cells lay in the range of 1 to 3 µM; at human EDG-2, 10 to 30 µM.
In the case of `CCNCc1ccc(-c2onc(C)c2NC(=O)OC(C)c2ccccc2Cl)cc1` (stereo not shown) [Compound 116, 1-(2-Chlorophenyl)ethyl N-(5-{4-[(ethylamino)methyl]phenyl}-3-methyl-4-isoxazolyl)-carbamate], the IC50 with Human EDG-2/HepG2 cells was in the range of 0.3 to 1 µM; at human EDG-2 it was 30 to 100 µM.
The corresponding values for `Cc1noc(-c2ccc(CSCCC(=O)O)cc2)c1NC(=O)OC(C)c1ccccc1Cl` (stereo not shown) [Compound 126, 3-({4-[4-({[1-(2-Chlorophenyl)ethoxy]carbonyl}amino)-3-methyl-5-isoxazolyl]benzyl}-sulfanyl)propanoic acid] are 0.01 to 0.03 µM and 3 to 10 µM.
As for `CCCCSCc1ccc(-c2onc(C)c2NC(=O)OC(C)c2ccccc2Cl)cc1` (stereo not shown) [Compound 125, 1-(2-Chlorophenyl)ethyl N-(5-{4-[(butylsulfanyl)methyl]phenyl)-3-methyl-4-isoxazolyl)-carbamate], the results for the IC50 with Human EDG-2/HepG2 cells and on human EDG-2 were 0.1 to 0.3 µM and 10 to 30 µM, respectively.
`COCc1cccc(-c2onc(C)c2NC(=O)OC(C)c2ccccc2Cl)c1` (stereo not shown) [Compound 128, 1-(2-Chlorophenyl)ethyl N-{5-[3-(methoxymethyl)phenyl]-3-methyl-4-isoxazolyl}carbamate]: the IC50 in the assay on Human EDG-2/HepG2 cells is 0.1 to 0.3 µM; against human EDG-2, 3 to 10 µM.
`CC(=O)NCCSCc1ccc(-c2onc(C)c2NC(=O)OC(C)c2ccccc2Cl)cc1` (stereo not shown) [Compound 145, 1-(2-Chlorophenyl)ethyl N-{5-[4-({[2-(acetylamino)ethyl]sulfanyl}methyl)phenyl]-3-methyl-4-isoxazolyl}carbamate]: the IC50 in the assay with Human EDG-2/HepG2 cells was in the range of 0.3 to 1 µM; against human EDG-2 it was 3 to 10 µM.
Taken in the same sequence, the figures for `Cc1noc(-c2ccc(CSc3nnnn3C)cc2)c1NC(=O)OC(C)c1ccccc1Cl` (stereo not shown) [Compound 137, 1-(2-Chlorophenyl)ethyl N-[3-methyl-5-(4-{[(1-methyl-1H-1,2,3,4-tetrazol-5-yl)-sulfanyl]methyl}phenyl)-4-isoxazolyl]carbamate] were 0.1 to 0.3 µM and 3 to 10 µM.
For the molecule `CCOCc1cccc(-c2onc(C)c2NC(=O)OC(C)c2ccccc2Cl)c1` (stereo not shown) [Compound 129, 1-(2-Chlorophenyl)ethyl N-{5-[3-(ethoxymethyl)phenyl]-3-methyl-4-isoxazolyl}carbamate], the values for the IC50 with Human EDG-2/HepG2 cells and at human EDG-2 were 0.3 to 1 µM and 3 to 10 µM, respectively.
Take `CCOC(=O)CCNCc1ccc(-c2onc(C)c2NC(=O)OC(C)c2ccccc2Cl)cc1` (stereo not shown) [Compound 113, Ethyl 3-({4-[4-({[1-(2-chlorophenyl)ethoxy]carbonyl}amino)-3-methyl-5-isoxazolyl]-benzyl}amino)propanoate]: the IC50 was 0.1 to 0.3 µM in the assay with Human EDG-2/HepG2 cells and 10 to 30 µM at human EDG-2.
Taken in the same sequence, the figures for `CCCCCNCc1ccc(-c2onc(C)c2NC(=O)OC(C)c2ccccc2Cl)cc1` (stereo not shown) [Compound 109, 1-(2-Chlorophenyl)ethyl N-(3-methyl-5-{4-[(pentylamino)methyl]phenyl}-4-isoxazolyl)carbamate] were 1 to 3 µM and 10 to 30 µM.
Taken in the same sequence, the figures for `CCSCc1ccc(-c2onc(C)c2NC(=O)OC(C)c2ccccc2Cl)cc1` (stereo not shown) [Compound 108, 1-(2-Chlorophenyl)ethyl N-(5-{4-[(ethylsulfanyl)methyl]phenyl}-3-methyl-4-isoxazolyl)carbamate] were 0.1 to 0.3 µM and 3 to 10 µM.

The values above are taken from patent publication US6964975B2, “Isoxazole and thiazole compounds and use thereof as medicine” (Kirin Beer Kabushiki Kaisha, priority 2000, dated 2005).
